Reference: publication PMC10355216, “The C-terminal tail of CSNAP attenuates the CSN complex” (Life Science Alliance, 2023)

Tests used:
recombinant CSN complex = experiment: Peptide array screen of C-CSNAP peptides with recombinant CSN (rCSN^WT); assay type: binding; conditions: for Average fold change, intensities as fold of C-CSNAP (A1): rCSN^WT on INTAVIS Celluspots array, anti-CSN3 and HRP secondary antibody, average of six replicates (three independent experiments in duplicates); for Average fold change: peptide array with rCSN, average of 3 experiments, left and right (n = 6), fold of C-CSNAP (A1);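 as to all read-outs here: densitometric signal of CSN bound to each synthesized peptide spot, with an antibody-only array lacking CSN run to exclude non-specific binding, higher values meaning stronger binding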
Protocol: To generate an optimized C-CSNAP peptide, we used the peptide array methodology. The array was designed to screen for the optimal peptide length, sequence, and stability (Fig 3A). A recombinant CSN complex was expressed, purified, and screened for binding to the peptide array by using an anti-CSN3 antibody. To rule out non-specific binding of the probing antibody, a control experiment was carried out without the addition of the CSN complex (Fig 3A right panel).
C-CSNAP peptide and its derivatives were synthesized on a microarray. The array was blocked and incubated with or without the COP9 signalosome complex (CSN) and probed using an anti-CSN3 antibody and HRP-conjugated secondary antibody. To assess non-specific binding of the antibodies to the array, anti-CSN3 and anti-GAR–HRP were used without the addition of the CSN. Signal intensity of each spot was measured and normalized to the intensity of the spot of C-CSNAP (A1). Measured values for each spot were averaged from six arrays and plotted with SEM. […] (A) A representative image of the peptide array (left) and the background (right). (B) Elongation of the C-terminal 16 amino acids (green) with one residue at a time based on the full-length sequence. […] (F) Single D-amino acid substitution at various positions.
(§1) Intensity values are normalized to the intensity of the 16AA C-CSNAP peptide (A1) on each array from three independent experiments in duplicates, and averages from the six replicates are calculated with SEM.
(§2) Optimization of C-CSNAP sequence for enhanced binding to recombinant CSN^ΔCSNAP was screened by printing the modified sequences of CSNAP or C-CSNAP (Phe to Trp, Asp to Glu, Ala screen, D-amino acid screen, N-α-methylation, and Aib incorporation on INTAVIS Celluspots array [2 × 384spots]). The array was blocked with 5% skim milk in TBS-0.5% Tween 20 (TBS-T) for 4 h at room temperature, washed three times in TBS-T, and then incubated with 0.5 μM CSN^ΔCSNAP in 5% milk–TBS-T. Bound CSN^ΔCSNAP was visualized by incubating with anti-CSN3 (ab79698) antibody (1:10,000, overnight) and goat-anti-rabbit-HRP secondary antibody (1:10,000, 1 h).

CSN^ΔCSNAP complex = experiment: Peptide array screen of C-CSNAP peptides with rCSN^ΔCSNAP; assay type: binding; conditions: average of 5 experiments;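 also: Array-printed peptides incubated with 0.5 µM CSN^ΔCSNAP, bound complex detected by anti-CSN3 antibody plus HRP-linked secondary, spot intensity expressed relative to the parent reference peptide spot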
Protocol: Peptide array screen of modified C-CSNAP peptides. C-CSNAP peptide and its derivatives were printed on a microarray. The array was blocked and incubated with or without the CSN∆CSNAP complex and probed using an anti-CSN3 antibody and HRP-conjugated secondary antibody. To assess non-specific binding of the antibodies to the array, anti-CSN3 and anti-GAR-HRP were used without the addition of the COP9 signalosome complex (CSN). Signal intensity of each spot was measured and normalized to the intensity of the spot of C-CSNAP (A1). Measured values for each spot were averaged from six arrays and plotted with standard errors SEM.
as §1, §2

[1] = peptide array, rCSN^ΔCSNAP, left and right spots
[2] = peptide array with rCSN^ΔCSNAP, left and right (n = 10), fold of C-CSNAP (A1)

Substance	Average fold change, intensities as fold of C-CSNAP (A1) (recombinant CSN complex)	Average fold change (recombinant CSN complex) [fold]	Average fold change (CSN^ΔCSNAP complex; [1])	also measured
DFFN-Aib-FEDLF-Aib-DDDIQ-Aib [Position H15, C-CSNAP with Aib incorporation (46,52,58)]	0.4542 fold of C-CSNAP (A1)	–	–	intensities as fold of C-CSNAP (A1), Experiment #1 left (recombinant CSN complex; rCSN^WT peptide array, replicate: Experiment #1, left array): 0.3458 fold of C-CSNAP (A1); intensities as fold of C-CSNAP (A1), Experiment #1 right (recombinant CSN complex; rCSN^WT peptide array, replicate: Experiment #1, right array): 0.3290 fold of C-CSNAP (A1); intensities as fold of C-CSNAP (A1), Experiment #2 left (recombinant CSN complex; rCSN^WT peptide array, replicate: Experiment #2, left array): 0.2291 fold of C-CSNAP (A1); intensities as fold of C-CSNAP (A1), Experiment #2 right (recombinant CSN complex; rCSN^WT peptide array, replicate: Experiment #2, right array): 0.4652 fold of C-CSNAP (A1); intensities as fold of C-CSNAP (A1), Experiment #3 left (recombinant CSN complex; rCSN^WT peptide array, replicate: Experiment #3, left array): 0.2799 fold of C-CSNAP (A1); intensities as fold of C-CSNAP (A1), Experiment #3 right (recombinant CSN complex; rCSN^WT peptide array, replicate: Experiment #3, right array): 1.0762 fold of C-CSNAP (A1); Average fold change, intensities as fold of C-CSNAP (A1) (CSN^ΔCSNAP complex; [1]): 0.5199 fold
EFFNDFEELFEDDEIQ [D42,49,52,55E]	–	0.7529	0.9030 fold of C-CSNAP (A1)	–
DWFNDFEDLWDDDDIQ [Position C18, C-CSNAP, Phe to Trp substitution F43,51W]	0.5534 fold of C-CSNAP (A1)	–	1.2485 fold of C-CSNAP (A1)	–
ADFFNDFEDLFDDDDIQ [A 2, CSNAP residues 41-57]	0.9705 fold of C-CSNAP (A1)	–	–	Average fold change (CSN^ΔCSNAP complex; [2]): 0.9058 fold
DFFNDWEDLFDDDDIQ [Position C14, C-CSNAP, Phe to Trp substitution F47W]	0.9440 fold of C-CSNAP (A1)	–	1.1204 fold of C-CSNAP (A1)	–
EFFNEFEELFEDEDIQ [D42,46,49,52,54E]	–	0.5967	0.9563 fold of C-CSNAP (A1)	–
DFFNDFEDLFEDDDIQ [D 6, C-CSNAP, Asp to Glu substitution D52E]	0.9809 fold of C-CSNAP (A1)	–	1.1581 fold of C-CSNAP (A1)	–
DFFNEFEELFEEEEIQ [D46,49,52,53,54,55E]	–	0.5470	1.0133 fold of C-CSNAP (A1)	–
DFFNEFEDLFDEDDIQ [Position D18, C-CSNAP, Asp to Glu substitution D46,53E]	0.5559 fold of C-CSNAP (A1)	–	1.0532 fold of C-CSNAP (A1)	–
KAVHADFFNDFEDLFDDDDIQ [A 6, CSNAP residues 37-57]	1.1025 fold of C-CSNAP (A1)	–	–	Average fold change (CSN^ΔCSNAP complex; [2]): 0.9179 fold
DFFNEFEELFEDDDIQ [Position E13, C-CSNAP, Asp to Glu substitution D46,49,52E]	0.6592 fold of C-CSNAP (A1)	–	1.2426 fold of C-CSNAP (A1)	–
EFFNEFEDLFDDDDIQ [Position D10, C-CSNAP, Asp to Glu substitution D42,46E]	0.8862 fold of C-CSNAP (A1)	–	1.0622 fold of C-CSNAP (A1)	–
DWFNDWEDLWDDDDIQ [Position C23, C-CSNAP, Phe to Trp substitution F43,47,51W]	0.4941 fold of C-CSNAP (A1)	–	0.6854 fold of C-CSNAP (A1)	–
EFFNEFEELFDDEDIQ [D42,46,49,54E]	–	0.5426	1.0465 fold of C-CSNAP (A1)	–
EFFNEFEELFDDDEIQ [D42,46,49,55E]	–	0.5938	0.8257 fold of C-CSNAP (A1)	–
EFFNEFEELFEDDDIQ [D42,46,49,52E]	–	0.5168	1.0318 fold of C-CSNAP (A1)	–
EFFNDFEELFEDDDIQ [E 9, C-CSNAP, Asp to Glu substitution D42,49,52E]	0.6782 fold of C-CSNAP (A1)	–	1.0112 fold of C-CSNAP (A1)	–
GGSTGLLMDLAANEKAVHADFFNDFEDLFDDDDIQ [Position A20, CSNAP residues 23-57]	0.8793 fold of C-CSNAP (A1)	–	–	Average fold change (CSN^ΔCSNAP complex; [2]): 1.1737 fold
DFFNDFEELFEDDEIQ [Position E19, C-CSNAP, Asp to Glu substitution D49,52,55E]	0.6448 fold of C-CSNAP (A1)	–	1.0909 fold of C-CSNAP (A1)	–
EFFNEFEELFDDDDIQ [E 4, C-CSNAP, Asp to Glu substitution D42,46,49E]	0.8374 fold of C-CSNAP (A1)	–	0.8106 fold of C-CSNAP (A1)	–
DLAANEKAVHADFFNDFEDLFDDDDIQ [Position A12, CSNAP residues 31-57]	0.9978 fold of C-CSNAP (A1)	–	–	Average fold change (CSN^ΔCSNAP complex; [2]): 1.0405 fold
DFFNDFEDLFEEEEIQ [D52,53,54,55E]	–	0.7255	1.3020 fold of C-CSNAP (A1)	–
EFFNDFEELFDDDDIQ [Position D11, C-CSNAP, Asp to Glu substitution D42,49E]	0.8480 fold of C-CSNAP (A1)	–	1.0773 fold of C-CSNAP (A1)	–
EFFNEFEELFEDDEIQ [D42,46,49,52,55E]	–	0.5210	0.9893 fold of C-CSNAP (A1)	–
